The values below are quoted from earlier work in paper PMC11635053, “Development of a homotrimeric PSMA radioligand based on the NOTI chelating platform” (EJNMMI Radiopharmacy and Chemistry, 2024).

For one series, the system named is patients. Conditions: cited from earlier work; for Injected activity excreted: patients, ref Kurth et al. [2018].
For series [1], the system named is LNCaP xenograft bearing mice. The note with it: 1 h p.i., ref Benešová et al. ([2015]); cited from earlier work.

Read-outs that look alike come from different tables or passages of the source.

[^177Lu]Lu-PSMA-617: in the series on patients (PSMA targeted radioligand therapy, ref Kratochwil et al. [2016]), the “Patients that may not respond to therapy” value is recorded as “more than 30%”. For the same substance, the Injected activity excreted with patients (by 12 h) is given as approximately 70%. Besides, in the series with patients (within 4 h of administration), the Injected activity excreted is listed as 50%. Besides, in series [1], the Kidney uptake is on record as 137.2 ± 77.8 % IA g^−1, the Liver uptake is on record as 0.22 ± 0.08 % IA g^−1, the Tumor uptake is given as 11.20 ± 4.17 % IA g^−1 and the Tumor-to-kidney ratio was 0.08. Also, the Tumor-to-liver ratio in series [1] is given as 50.91.
